Experimental data from patent publication US10307413B2, “Tetrahydro- and dihydro-isoquinoline PRMT5 inhibitors and uses thereof” (Epizyme, Inc., priority 2013, dated 2019).

Key:
Z-138 cell line = experiment: Z-138 Proliferation Assay (Cell Titer Glo, 5 days); assay type: cell-based; details: Homo sapiens, 120 h; Z-138 cells, 5 days; read-out: Proliferation EC50
Text: RPMI/Glutamax medium, penicillin-streptomycin, heat inactivated fetal bovine serum were purchased from Life Technologies, Grand Island, N.Y., USA. V-bottom polypropylene 384-well plates were purchased from Greiner Bio-One, Monroe, N.C., USA. Cell culture 384-well white opaque plates were purchased from Perkin Elmer, Waltham, Mass., USA. Cell-Titer Glo® was purchased from Promega Corporation, Madison, Wis., USA. SpectraMax M5 plate reader was purchased from Molecular Devices LLC, Sunnyvale, Calif., USA.
A compound source plate was prepared by performing triplicate nine-point 3-fold serial dilutions in DMSO, beginning at 10 mM (final top concentration of compound in the assay was 20 μM and the DMSO was 0.2%). A 100 nL aliquot from the compound stock plate was added to its respective well in the cell plate. […] After addition of compounds, assay plates were incubated for 5 days at 37° C., 5% CO2, relative humidity >90%.
Cell viability was measured by quantitation of ATP present in the cell cultures, adding […] of Cell Titer Glo® reagent to the cell plates. Luminescence was read in the SpectraMax M5 microplate reader. The concentration of compound inhibiting cell viability by 50% was determined using a 4-parametric fit of the normalized dose response curves.

[1] = test system: symmetric di-methyl arginine in Z-138 cells; experiment: Z-138 Methylation Assay (In Cell Western for symmetric di-methyl arginine and DNA content); assay type: cell-based; details: Homo sapiens, read-out: ICW EC50
Text: [formula] [formula] Where top and bottom are the normally allowed to float, but may be fixed at 100 or 0 respectively in a 3-parameter fit. The Hill Coefficient normally allowed to float but may also be fixed at 1 in a 3-parameter fit. Y is the % inhibition and X is the compound concentration.
RPMI/Glutamax medium, penicillin-streptomycin, heat inactivated fetal bovine serum, and D-PBS were purchased from Life Technologies, Grand Island, N.Y., USA. Odyssey blocking buffer, 800CW goat anti-rabbit IgG (H+L) antibody, and Licor Odyssey infrared scanner were purchased from Licor Biosciences, Lincoln, Nebr., USA. Symmetric di-methyl arginine antibody was purchased from EMD Millipore, Billerica, Mass., USA. 16% Paraformaldehyde was purchased from Electron Microscopy Sciences, Hatfield, Pa., USA.
Cell Treatment, in Cell Western (ICW) for Detection of Symmetric Di-Methyl Arginine and DNA Content.
Z-138 cells were seeded in assay medium at a concentration of 50,000 cells per mL to a 384-well cell culture plate with 50 μL per well. Compound (100 nL) from 384 well source plates was added directly to 384 well cell plate. Plates were incubated at 37° C., 5% CO2 for 96 hours. […] Plates were incubated at room temperature for 30 minutes then incubated at 37° C., 5% CO2 for 5 hours. After the incubation, 40 μL per well of 8% paraformaldehyde in PBS (16% paraformaldahyde was diluted to 8% in PBS) was added to each plate and incubated for 30 minutes. […] Next 30 μL per well of Odyssey blocking buffer were added to each plate and incubated 1 hour at room temperature. Blocking buffer was removed and 20 μL per well of primary antibody was added (symmetric di-methyl arginine diluted 1:100 in Odyssey buffer with 0.1% Tween 20 (v/v)) and plates were incubated overnight (16 hours) at 4° C. Plates were washed 5 times with 100 μL per well of wash buffer. Next 20 μL per well of secondary antibody was added (1:200 800CW goat anti-rabbit IgG (H+L) antibody, 1:1000 DRAQ5 (Biostatus limited) in Odyssey buffer with 0.1% Tween 20 (v/v)) and incubated for 1 hour at room temperature. The plates were washed 5 times with 100 μL per well wash buffer then 1 time with 100 μL per well of water. Plates were allowed to dry at room temperature then imaged on the Licor Odyssey machine which measures integrated intensity at 700 nm and 800 nm wavelengths. Both 700 and 800 channels were scanned.
First, the ratio for each well was determined by:
Each plate included fourteen control wells of DMSO only treatment (minimum inhibition) as well as fourteen control wells for maximum inhibition treated with 3 μM of a reference compound (Background wells). The average of the ratio values for each control type was calculated and used to determine the percent inhibition for each test well in the plate. Reference compound was serially diluted three-fold in DMSO for a total of nine test concentrations, beginning at 3 μM. Percent inhibition was determined and IC50 curves were generated using triplicate wells per concentration of compound. Percent Inhibition=100−

Row | EC50 [1] [nM] | Compound | EC50 (Z-138 cell line) [nM]
1 | < 100 | Cc1c(NC2CCOCC2)cccc1C(=O)NCC(O)CN1CCc2ccccc2C1 (stereo not shown) [Compound 40, N-(3-(3,4-dihydroisoquinolin-2(1H)-yl)-2-hydroxypropyl)-2-methyl-3-((tetrahydro-2H-pyran-4-yl)amino)benzamide] | 1000 to 10000
2 | 101 to 1000 | O=C(NC[C@@H](O)CN1CCc2ccccc2C1)c1cccc(NC2CCOCC2)c1 [Compound 43] | 1000 to 10000
3 | 101 to 1000 | O=C(NCC(O)CN1CCc2ccccc2C1)c1cccc(NC2CCCOC2)c1 (stereo not shown) [Compound 60] | 1000 to 10000
4 | 101 to 1000 | O=C(NCC(O)CN1CCc2ccccc2C1)c1cc(Cl)cc(NC2CCOCC2)c1 (stereo not shown) [Compound 64] | 1000 to 10000
5 | 101 to 1000 | O=C(NCC(O)CN1CCc2ccccc2C1)c1ccc(NC2CCOCC2)cc1 (stereo not shown) [Compound 66] | 1000 to 10000
6 | 101 to 1000 | CN(CC(O)CN1CCc2ccccc2C1)C(=O)c1cccc(NC2CCOCC2)c1 (stereo not shown) [Compound 71] | 1000 to 10000
7 | 101 to 1000 | COc1ccc(NC2CCOCC2)cc1C(=O)NCC(O)CN1CCc2ccccc2C1 (stereo not shown) [Compound 77] | 1000 to 10000
8 | < 100 | O=C(NCC(O)CN1CCc2ccccc2C1)c1cc(F)cc(NC2CCOCC2)c1 (stereo not shown) [Compound 78] | 101 to 1000
9 | < 100 | O=C(NC[C@H](O)CN1CCc2ccccc2C1)c1cccc(NC2CCOC2)c1 (stereo partly shown) [Compound 80] | 101 to 1000
10 | 101 to 1000 | O=C(NC[C@@H](O)CN1CCc2ccccc2C1)c1cccc(NC2CCOC2)c1 (stereo partly shown) [Compound 81] | 1000 to 10000
11 | < 100 | O=C(NC[C@H](O)CN1CCc2ccccc2C1)c1cccc(OC2CCOCC2)c1 [Compound 82] | 101 to 1000
12 | 101 to 1000 | O=C(NCC(O)CN1CCc2ccccc2C1)c1cccc(NC2CCNCC2)c1 (stereo not shown) [Compound 94] | 10000 to 50000
13 | 101 to 1000 | Cc1ccc(NC2CCOCC2)cc1C(=O)NCC(O)CN1CCc2ccccc2C1 (stereo not shown) [Compound 95] | 1000 to 10000
14 | < 100 | O=C(NCC(O)CN1CCc2ccccc2C1)c1cccc(C2CCOCC2)c1 (stereo not shown) [Compound 99] | 1000 to 10000

Further lines, the compound ahead of its results:

Row | Compound | EC50 [1] [nM] | EC50 (Z-138 cell line) [nM]
15 | CN1CCC(c2cccc(C(=O)NCC(O)CN3CCc4ccccc4C3)c2)C1 (stereo not shown) [Compound 38, N-(3-(3,4-dihydroisoquinolin-2(1H)-yl)-2-hydroxypropyl)-3-(1-methylpyrrolidin-3-yl)benzamide] | 101 to 1000 | 10000 to 50000
16 | CCN(c1cccc(C(=O)NCC(O)CN2CCc3ccccc3C2)c1C)C1CCOCC1 (stereo not shown) [Compound 41] | < 100 | 1000 to 10000
17 | O=C(NCC(O)CN1CCc2ccccc2C1)c1cccc(CC2CCOCC2)c1 (stereo not shown) [Compound 59] | < 100 | 101 to 1000
18 | O=C(NCC(O)CN1CCc2ccccc2C1)c1ccnc(NC2CCOCC2)n1 (stereo not shown) [Compound 62] | 101 to 1000 | 10000 to 50000
19 | O=C(NCC(O)CN1CCc2ccccc2C1)c1cc(NC2CCOCC2)ncn1 (stereo not shown) [Compound 63] | < 100 | 101 to 1000
20 | O=C(NCC(O)CN1CCc2ccccc2C1)c1ccc(F)c(NC2CCOCC2)c1 (stereo not shown) [Compound 65] | < 100 | 1000 to 10000
21 | COc1ccc(C(=O)NCC(O)CN2CCc3ccccc3C2)cc1NC1CCOCC1 (stereo not shown) [Compound 67] | 101 to 1000 | 10000 to 50000
22 | O=C(NCC(O)CN1CCc2ccccc2C1)c1ccc2ncccc2c1 (stereo not shown) [Compound 68] | < 100 | 1000 to 10000
23 | COCCCNc1cccc(C(=O)NCC(O)CN2CCc3ccccc3C2)c1 (stereo not shown) [Compound 69] | 1000 to 10000 | > 20000
24 | O=C(NCC(O)CN1CCc2ccccc2C1)c1cccc(NC2CCOCC2)n1 (stereo not shown) [Compound 73] | < 100 | 1000 to 10000
25 | O=C(NCC(O)CN1CCc2ccccc2C1)c1ccnc(NC2CCOCC2)c1 (stereo not shown) [Compound 74] | < 100 | 101 to 1000
26 | O=C(NCC(O)CN1CCc2ccccc2C1)c1cccc(NC2CCOCC2)c1F (stereo not shown) [Compound 79] | < 100 | 101 to 1000
27 | Cc1ccc2cc(C(=O)NCC(O)CN3CCc4ccccc4C3)ccc2n1 (stereo not shown) [Compound 84, N-(3-(3,4-dihydroisoquinolin-2(1H)-yl)-2-hydroxypropyl)-2-methylquinoline-6-carboxamide] | < 100 | 1000 to 10000
28 | O=C(NCC(O)CN1CCc2ccccc2C1)c1ccc2nccnc2c1 (stereo not shown) [Compound 85] | 101 to 1000 | 10000 to 50000
29 | O=C(NCC(O)CN1CCc2ccccc2C1)c1ccc2c(c1)OCCN2 (stereo not shown) [Compound 88] | 101 to 1000 | > 20000
30 | O=C1COc2cc(C(=O)NCC(O)CN3CCc4ccccc4C3)ccc2N1 (stereo not shown) [Compound 89] | 101 to 1000 | > 20000
31 | CCN1CCN(Cc2cccc(C(=O)NCC(O)CN3CCc4ccccc4C3)c2)CC1 (stereo not shown) [Compound 90] | 101 to 1000 | 10000 to 50000
32 | CS(=O)(=O)N1CCN(Cc2cccc(C(=O)NCC(O)CN3CCc4ccccc4C3)c2)CC1 (stereo not shown) [Compound 91] | < 100 | 1000 to 10000
33 | O=C(NCC(O)CN1CCc2ccccc2C1)c1cccc(CN2CCN(CC(F)(F)F)CC2)c1 (stereo not shown) [Compound 92] | < 100 | 1000 to 10000
34 | O=C(NCC(O)CN1CCc2ccccc2C1)c1cccc(NC2CCNC2)c1 (stereo not shown) [Compound 93] | 1000 to 10000 | > 20000
35 | Cc1ccc(NC2CCOC2)cc1C(=O)NCC(O)CN1CCc2ccccc2C1 (stereo not shown) [Compound 96] | < 100 | 1000 to 10000
36 | Cc1ccc(NC2COC2)cc1C(=O)NCC(O)CN1CCc2ccccc2C1 (stereo not shown) [Compound 97] | < 100 | 1000 to 10000
37 | O=C(NCC(O)CN1CCc2ccccc2C1)c1cccc(NC2CCOCC2O)c1 (stereo not shown) [Compound 98] | 101 to 1000 | 1000 to 10000
38 | CC(=O)N1CCN(Cc2cccc(C(=O)NCC(O)CN3CCc4ccccc4C3)c2)CC1 (stereo not shown) [Compound 100] | < 100 | 1000 to 10000
39 | CC(C)N1CCC(Nc2cccc(C(=O)NCC(O)CN3CCc4ccccc4C3)c2)C1 (stereo not shown) [Compound 101] | < 100 | 10000 to 50000
40 | O=C(NCC(O)CN1CCc2ccccc2C1)c1cccc(NC2CCN(CC(F)(F)F)C2)c1 (stereo not shown) [Compound 102] | < 100 | 1000 to 10000
41 | CC(C)N1CCC(Nc2cccc(C(=O)NCC(O)CN3CCc4ccccc4C3)c2)CC1 (stereo not shown) [Compound 103] | < 100 | 10000 to 50000
